pIC50: −log10 of the molar value. Read-outs that look alike come from different tables or passages of the source.
Tests used:
[1] = BACE cell assay: soluble Amyloid Beta 1-40 (Aβ 1-40) in culture media of H4-APPsw cells; format: cell-based
Method: H4 neuroglioma cell line that stably expresses Amyloid Precursor Protein (APP) containing the KM-NL Swedish mutation (H4-APPsw) was generated. For the assay, cells are treated overnight in the presence of inhibitor and the culture media are subjected to ELISA analysis of soluble Amyloid Beta 1-40 (Aβ 1-40).
H4 neuroglioma cell line was cultured in DMEM with 10% FBS and 1% penicillin/streptomycin (Culture Medium) at 37° C., 5% CO2. […] 24 hrs after transfection, the cells were replaced into three new plates (150 mm) in fresh Culture Medium with 250 ug/ml Zeocin. […] The levels of APPsw expression were analyzed by immunoblotting and the production of Aβ 1-40 was detected by ELISA of culture supernatants. The selected clones are maintained in Culture Medium with 250 μg/ml Zeocin and routinely split in 3-4 days to maintain 20-80% confluence.
Split cells. Split H4-APPsw cells in Culture Medium and culture overnight such that cells will be ˜80% confluent next morning.
Create Compound Dilution Plate. After determining the desired final concentration of compound to be tested, create a 500× dilution plate. Add DMSO, but not inhibitor, to each well of Column 1. […] Add compounds of interest at 500× desired final concentration to wells A3-A10. Add DMSO, but not inhibitor, to each well of Columns 11 and 12. Dilute contents of Row A 1:3 in Row B. then continue through Rows C—H.
Create Media Plate. To create a 2× solution of compound in media, add 996 μL Culture Medium to each well of a 96-well 2 ml deep well plate (Media Plate) in biosafety hood. Add 4 μL 5 mM control compound to Media Plate wells A1-D1 for determination of full inhibition.
Add media to Cell Plate. With a multichannel pipettor, mix each well of Media Plate several times to insure homogeneity. Add 100 μL of mixture to Black polymer bottom P-D-L plates. Next, place Medium Plate and Cell Plate in the incubator.
Add cells to Cell Plate. Trypsinize and count H4-APPsw cells. Dilute cells 6×10^5 cells/ml in Culture Medium and remove Cell Plate from incubator. Vortex cells to homogeneity, then using a multichannel repeating pipettor, add 100 μL cell suspension to Cell Plate, adding cells from Row H to Row A. Place Cell Plate in incubator.
Change media in Cell Plate. After 5 h, check Cell Plate by microscope to insure cells are attached. In culture hood, remove media from Cell Plate using multichannel repeating pipettor. Add 100 μl Culture Medium to each well. Remove Media Plate from incubator and mix with pipettor as previous. Add 100 μl from each well of Media Plate to corresponding well in Cell Plate. Place Cell Plate in incubator overnight.
Perform ELISA to determine levels of secreted Aβ 1-40. After 16 h incubation, spin Cell Plate for 8 min at 1200 rpm. The primary reading of Aβ 1-40 levels is done using PerkinElmer AlphaLISA technology. Follow the manufacturer's protocol for performing AlphaLISA in a white ½ area Optiwell plate using Row 12 for peptide standard (1:2 dilutions, starting at 15 ng/ml). Data are acquired using PerkinElmer Fusion-Alpha FP-HT, Alpha protocol (Count Time 0.6 s, Count Time Ratio 30%:70%).
Export data from Fusion using Columnar Report format into a separate file for each plate. Upload data into Activity Base using RIA-DOSE-RESPONSE protocol (Version 1). Data from at least eight doses were fitted to a four parameter logistical model using XLfit software to determine potency.

[2] = molecular target: T1, truncated human beta-secretase (residues 1-458, His6-tagged at the C-terminus) (Homo sapiens, UniProt P56817); experiment: BACE fluorescence quench assay; format: biochemical; conditions: in vitro enzyme activity, BACE fluorescence assay, pH 4.5; read-out: IC50
T1 construct: truncated human beta-secretase (residues 1-458, His6-tagged at the C-terminus); His6 (C); made in house; host or cells: insect cells D. melanogaster S2 (baculovirus expression system (so in the source))

[3] = in vitro cell activity, H4-APPsw cells, secreted Aβ 1-40, overnight treatment, read-out: IC50

T1 sequence (P56817 22-458): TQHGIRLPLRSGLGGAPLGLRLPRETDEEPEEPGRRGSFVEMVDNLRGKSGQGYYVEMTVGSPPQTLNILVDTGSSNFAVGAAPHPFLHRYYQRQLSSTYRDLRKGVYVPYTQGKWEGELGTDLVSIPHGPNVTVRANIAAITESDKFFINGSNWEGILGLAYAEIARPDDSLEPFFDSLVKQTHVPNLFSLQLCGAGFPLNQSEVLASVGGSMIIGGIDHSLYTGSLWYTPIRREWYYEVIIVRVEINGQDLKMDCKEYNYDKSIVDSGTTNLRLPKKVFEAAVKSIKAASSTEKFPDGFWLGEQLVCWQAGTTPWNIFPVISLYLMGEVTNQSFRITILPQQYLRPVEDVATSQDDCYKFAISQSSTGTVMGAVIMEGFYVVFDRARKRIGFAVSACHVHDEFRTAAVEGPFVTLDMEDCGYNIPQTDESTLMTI

Row | Structure (SMILES) | pIC50 [1, 3] | further results
1 | CN1C(=O)C2(CC(C3CCOC(C)(C)C3)Oc3ccc(-c4cc(F)cc(C(F)(F)F)c4)cc32)N=C1N (stereo not shown) [Compound 195] | 7.00 to 9.00 | –
2 | Cc1cc(C)cc(-c2ccc3c(c2)[C@]2(C[C@]4(CCCOC4)O3)N=C(N)N(C)C2=O)c1 [Compound 276] | 6.00 to 6.30 | –
3 | CN1C(=O)C2(CC(C3CCOC(C)(C)C3)Oc3ccc(-c4cccc(C#N)c4F)cc32)N=C1N (stereo not shown) [Compound 212] | 7.00 to 9.00 | –
4 | CN1OC2(CC(C3CCOC(C)(C)C3)Oc3ccc(-c4cccc(Cl)c4)cc32)N=C1N (stereo not shown) [Compound 264] | 5.30 to 6.00 | –
5 | CN1O[C@@]2(C[C@@]3(CCCc4ccccc4C3)Oc3ccc(-c4cccc(C#N)c4)cc32)N=C1N [Compound 209] | 5.30 to 6.00 | –
6 | Cc1ccc(C#N)cc1-c1ccc2c(c1)[C@]1(C[C@H](C3CCOC(C)(C)C3)O2)N=C(N)N(C)C1=O (stereo partly shown) [Compound 222] | 7.00 to 9.00 | –
7 | CN1C(=O)C2(CC3(CCCc4ccccc4C3)Oc3ccc(-c4cccc(C#N)c4)cc32)N=C1N (stereo not shown) [Compound 179] | 7.00 to 9.00 | –
8 | Cc1ccc(C#N)cc1-c1ccc2c(c1)[C@]1(C[C@]3(CCCOC3)O2)N=C(N)N(C)C1=O [Compound 277] | 6.30 to 7.00 | –
9 | CN1C(=O)C2(CC(C3CCOC(C)(C)C3)Oc3ccc(-c4cccc(Cl)c4)cc32)N=C1N (stereo not shown) [Compound 197] | 7.00 to 9.00 | –
10 | CN1C(=O)C2(CC(C3CCOC(C)(C)C3)Oc3ccc(-c4cccc(OC(F)(F)F)c4)cc32)N=C1N (stereo not shown) [Compound 184] | 7.00 to 9.00 | –
11 | CN1C(=O)C2(CC(C3CCOC(C)(C)C3)Oc3ccc(-c4cc(C#N)cc(C#N)c4)cc32)N=C1N (stereo not shown) [Compound 185] | 7.00 to 9.00 | –
12 | CN1C(=O)[C@@]2(C[C@]3(CCCOC3)Oc3ccc(-c4cccc(Cl)c4)cc32)N=C1N [Compound 224] | 6.30 to 7.00 | –
13 | COc1cc(F)cc(-c2ccc3c(c2)[C@]2(C[C@]4(CCCOC4)O3)N=C(N)N(C)C2=O)c1 [Compound 271] | 6.00 to 6.30 | –
14 | CC(C)C#Cc1ccc2c(c1)C1(CC3(CCCc4ccccc4C3)O2)N=C(N)N(C)O1 (stereo not shown) [Compound 265] | 5.30 to 6.00 | –
15 | CN1OC2(CC(C3CCc4ccccc43)Oc3ccc(-c4cccc(C#N)c4)cc32)N=C1N (stereo not shown) [Compound 226] | 5.30 to 6.00 | –
16 | CN1C(=O)C2(CC(C3CCCOC3)Oc3ccc(-c4cc(F)cc(F)c4)cc32)N=C1N (stereo not shown) [Compound 267] | 6.30 to 7.00 | –
17 | CN1OC2(CC3(CCCc4ccccc4C3)Oc3ccc(-c4ccc(F)c(C#N)c4)cc32)N=C1N (stereo not shown) [Compound 199] | 6.30 to 7.00 | –
18 | CN1C(=O)[C@@]2(C[C@]3(CCCOC3)Oc3ccc(-c4cc(Cl)cc(C#N)c4)cc32)N=C1N [Compound 203] | 7.00 to 9.00 | –
19 | COc1cc(Cl)cc(-c2ccc3c(c2)C2(CC4(CCCc5ccccc5C4)O3)N=C(N)N(C)O2)c1 (stereo not shown) [Compound 234] | 5.30 to 6.00 | –
20 | CN1C(=O)C2(CC(C3CCOC(C)(C)C3)Oc3ccc(-c4ccc(F)c(C#N)c4)cc32)N=C1N (stereo not shown) [Compound 182] | 7.00 to 9.00 | –
21 | CN1OC2(CC3(CCCc4ccccc4C3)Oc3ccc(-c4cc(Cl)cc(C#N)c4)cc32)N=C1N (stereo not shown) [Compound 191] | 6.30 to 7.00 | –
22 | CN1C(=O)[C@@]2(C[C@@H](C3CCOC(C)(C)C3)Oc3ccc(-c4ccc(F)c(Cl)c4)cc32)N=C1N (stereo partly shown) [Compound 187] | 7.00 to 9.00 | –
23 | COc1cc(C#N)cc(-c2ccc3c(c2)C2(CC4(CCCOC4)O3)N=C(N)N(C)C2=O)c1 (stereo not shown) [Compound 223] | 7.00 to 9.00 | –

Row | Structure (SMILES) | pIC50 [1, 3] | further results
24 | CN1C(=O)[C@@]2(C[C@]3(CCCOC3)Oc3ccc(-c4cc(C#N)cc(C(F)(F)F)c4)cc32)N=C1N [Compound 216] | 7.00 to 9.00 | –
25 | COc1cc(Cl)cc(-c2ccc3c(c2)C2(CC(C4CCOC(C)(C)C4)O3)N=C(N)N(C)C2=O)c1 (stereo not shown) [Compound 193] | 7.00 to 9.00 | –
26 | CN1OC2(CC(C3CCOC(C)(C)C3)Oc3ccc(-c4cc(C#N)cc(C(F)(F)F)c4)cc32)N=C1N (stereo not shown) [Compound 257] | 6.30 to 7.00 | –
27 | CN1OC2(CC(C3COCc4ccccc43)Oc3ccc(-c4cccc(C#N)c4)cc32)N=C1N (stereo not shown) [Compound 204] | 5.30 to 6.00 | –
28 | CN1OC2(CC(C3CCCc4ccccc43)Oc3ccc(-c4cc(C#N)cc(C#N)c4)cc32)N=C1N (stereo not shown) [Compound 180] | 6.30 to 7.00 | –
29 | CN1OC2(CC(C3CCCc4ccccc43)Oc3ccc(-c4cc(F)cc(C#N)c4)cc32)N=C1N (stereo not shown) [Compound 198] | 5.30 to 6.00 | –
30 | CN1OC2(C[C@@]3(CCCc4ccccc4C3)Oc3ccc(-c4cccc(C#N)c4)cc32)N=C1N (stereo partly shown) [Compound 251] | 6.30 to 7.00 | –
31 | CN1OC2(CC3(CCCc4ccccc4C3)Oc3ccc(-c4cccc(C#N)c4)cc32)N=C1N (stereo not shown) [Compound 217] | – | pIC50 [1]: 6.30 to 7.00
32 | CN1C(=O)[C@@]2(C[C@]3(CCCOC3)Oc3ccc(-c4ccc(F)c(Cl)c4)cc32)N=C1N [Compound 233] | 6.30 to 7.00 | –
33 | CN1OC2(CC(C3CCCc4ccccc43)Oc3ccc(-c4cc(F)cc(Cl)c4)cc32)N=C1N (stereo not shown) [Compound 240] | 5.00 to 5.30 | –
34 | CN1C(=O)C2(CC(C3CCCOC3)Oc3ccc(-c4cccc(F)c4)cc32)N=C1N (stereo not shown) [Compound 273] | 6.00 to 6.30 | –
35 | CN1C(=O)C2(C[C@H](C3CCOC(C)(C)C3)Oc3ccc(-c4cc(F)cc(F)c4)cc32)N=C1N (stereo partly shown) [Compound 231] | 6.30 to 7.00 | –
36 | Cc1cccc(-c2ccc3c(c2)C2(CC(C4CCOC(C)(C)C4)O3)N=C(N)N(C)C2=O)c1F (stereo not shown) [Compound 244] | 6.30 to 7.00 | –
37 | COc1cccc2c1CCCC1(C2)CC2(N=C(N)N(C)O2)c2cc(-c3cccc(C#N)c3)ccc2O1 (stereo not shown) [Compound 225] | 6.00 to 6.30 | –
38 | CN1C(=O)[C@@]2(C[C@@]3(CCCOC3)Oc3ccc(-c4cc(F)cc(Cl)c4)cc32)N=C1N [Compound 270] | 6.00 to 6.30 | –
39 | CC1CC[C@@]2(CO1)C[C@]1(N=C(N)N(C)O1)c1cc(-c3cc(F)cc(Cl)c3)ccc1O2 (stereo partly shown) [Compound 232] | 6.00 to 6.30 | –
40 | CN1C(=O)[C@@]2(C[C@@]3(CCCOC3)Oc3ccc(-c4cc(Cl)cc(C#N)c4)cc32)N=C1N [Compound 263] | 6.30 to 7.00 | –
41 | CN1O[C@@]2(C[C@]3(CCCc4ccccc4C3)Oc3ccc(-c4cccc(C#N)c4)cc32)N=C1N [Compound 205] | 6.30 to 7.00 | –
42 | CN1OC2(CC3(CCCc4ccccc4C3)Oc3ccc(-c4cc(F)cc(C#N)c4)cc32)N=C1N (stereo not shown) [Compound 186] | 6.00 to 6.30 | –
43 | CN1OC2(CC(C3CCOC(C)(C)C3)Oc3ccc(-c4cccc(-n5cccc5)n4)cc32)N=C1N (stereo not shown) [Compound 445] | – | pIC50 [2]: 5.00 to 5.30
44 | COc1ccc(-c2ccc3c(c2)[C@]2(C[C@]4(CCCOC4)O3)N=C(N)N(C)C2=O)cc1OC [Compound 428] | – | pIC50 [2]: 5.30 to 6.00
45 | CSc1cccc(-c2ccc3c(c2)[C@]2(C[C@]4(CCCOC4)O3)N=C(N)N(C)C2=O)c1 [Compound 296] | – | pIC50 [2]: 6.30 to 7.00
46 | CN1O[C@@]2(C[C@H]([C@@H]3CCCOC3)Oc3ccc(-c4cc(F)cc(F)c4)cc32)N=C1N (racemic) [Compound 326, (2S,4S/2R,4R)-6-(3,5-difluorophenyl)-2′-methyl-2-((S/R)-tetrahydro-2H-pyran-3-yl)-2′H-spiro[chroman-4,5′-[1,2,4]oxadiazol]-3′-amine] | – | pIC50 [2]: 6.30 to 7.00

Source: US8450308B2 (Vitae Pharmaceuticals, Inc., priority 2008, dated 2013)
